Patent US8741906B2 (priority 2011, dated 2014)

Tests used:
human CB2 receptors = molecular target: T1, human CB2 receptors (Homo sapiens, UniProt P34972); test: functional cAMP assay, human CB2; type: cell-based; conditions: CHO cells expressing human CB2, cAMP; read-out: human CB2 EC50
T1 construct: expressed in transfected cells; host or cells: CHO cells
Procedure, shortened: (§1)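 Compound exposure lasted 30 min at 30 °C in IBMX (1 mM)-containing Krebs Ringer bicarbonate buffer, applied to human CB1- or CB2-expressing CHO cells. Lysates were read by time-resolved FRET cAMP detection, converted via cAMP standard curve (10 μM–0.13 nM), and EC50 values calculated.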

human CB1 receptors = molecular target: T2, human CB1 receptors (Homo sapiens, UniProt P21554); test: functional cAMP assay, human CB1; type: cell-based; conditions: CHO cells expressing human CB1, cAMP; read-out: human CB1 EC50
T2 construct: expressed in transfected cells; host or cells: CHO cells
T2 sequence (P21554 whole entry): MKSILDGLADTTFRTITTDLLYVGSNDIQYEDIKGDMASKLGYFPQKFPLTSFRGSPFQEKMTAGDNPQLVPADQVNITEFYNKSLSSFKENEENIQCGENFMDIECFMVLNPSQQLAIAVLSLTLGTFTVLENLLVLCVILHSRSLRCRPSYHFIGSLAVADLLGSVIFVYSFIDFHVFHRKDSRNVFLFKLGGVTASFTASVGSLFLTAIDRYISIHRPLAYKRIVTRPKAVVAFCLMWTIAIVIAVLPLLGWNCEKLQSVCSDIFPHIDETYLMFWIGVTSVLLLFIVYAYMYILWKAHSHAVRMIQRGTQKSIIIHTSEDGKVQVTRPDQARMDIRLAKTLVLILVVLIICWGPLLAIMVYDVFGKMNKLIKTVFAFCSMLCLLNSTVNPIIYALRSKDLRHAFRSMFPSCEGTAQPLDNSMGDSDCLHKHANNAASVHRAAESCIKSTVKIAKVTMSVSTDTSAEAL
Procedure, shortened: as §1

T1 sequence (P34972 whole entry): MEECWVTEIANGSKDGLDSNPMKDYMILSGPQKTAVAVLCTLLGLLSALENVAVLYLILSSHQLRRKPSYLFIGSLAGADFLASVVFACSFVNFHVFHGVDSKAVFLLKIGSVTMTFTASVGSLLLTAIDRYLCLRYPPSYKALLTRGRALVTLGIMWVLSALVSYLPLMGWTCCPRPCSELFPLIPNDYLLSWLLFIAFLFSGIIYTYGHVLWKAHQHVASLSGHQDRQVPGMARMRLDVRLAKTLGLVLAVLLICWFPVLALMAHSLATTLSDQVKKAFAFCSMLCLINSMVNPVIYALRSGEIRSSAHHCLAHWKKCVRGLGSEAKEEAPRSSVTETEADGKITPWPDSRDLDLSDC

CC(C)(C)c1nc(N2CCC(F)(F)C2)c2nnn(CC(=O)c3ccncc3)c2n1 [Example 118, 2-[5-tert-Butyl-7-(3,3-difluoro-pyrrolidin-1-yl)-[1,2,3]triazolo[4,5-d]pyrimidin-3-yl]-1-pyridin-4-yl-ethanone]
EC50 (human CB2 receptors): 0.9 nM | EC50 (human CB1 receptors): > 10000 nM

CC(C)(C)c1nc(N2CCC(F)(F)C2)c2nnn(Cc3c(Cl)ccc(Cl)c3Cl)c2n1 [Example 119, 5-tert-Butyl-7-(3,3-difluoro-pyrrolidin-1-yl)-3-(2,3,6-trichloro-benzyl)-3H-[1,2,3]triazolo[4,5-d]pyrimidine]
EC50 (human CB2 receptors): 0.3 nM | EC50 (human CB1 receptors): 91 nM

CC(C)(C)c1nc(N2CCC(F)(F)C2)c2nnn(Cc3cccc(C(F)(F)F)c3Cl)c2n1 [Example 120, 5-tert-Butyl-3-(2-chloro-3-trifluoromethyl-benzyl)-7-(3,3-difluoro-pyrrolidin-1-yl)-3H-[1,2,3]triazolo[4,5-d]pyrimidine]
EC50 (human CB2 receptors): 0.7 nM | EC50 (human CB1 receptors): 181 nM

CC(C)(C)c1nc(N2CCC(F)(F)C2)c2nnn(CCc3cccnc3)c2n1 [Example 121, 5-tert-Butyl-7-(3,3-difluoro-pyrrolidin-1-yl)-3-(2-pyridin-3-yl-ethyl)-3H-[1,2,3]triazolo[4,5-d]pyrimidine]
EC50 (human CB2 receptors): 0.3 nM | EC50 (human CB1 receptors): > 10000 nM

CC(C)(C)c1nc(N2CCC(F)(F)C2)c2nnn(CCc3ccncc3)c2n1 [Example 122, 5-tert-Butyl-7-(3,3-difluoro-pyrrolidin-1-yl)-3-(2-pyridin-4-yl-ethyl)-3H-[1,2,3]triazolo[4,5-d]pyrimidine]
EC50 (human CB2 receptors): 1.3 nM | EC50 (human CB1 receptors): > 10000 nM

CC(C)(C)c1nc(N2CCC(F)(F)C2)c2nnn(Cc3c(C(F)(F)F)ccc(Cl)c3Cl)c2n1 [Example 123, 5-tert-Butyl-3-(2,3-dichloro-6-trifluoromethyl-benzyl)-7-(3,3-difluoro-pyrrolidin-1-yl)-3H-[1,2,3]triazolo[4,5-d]pyrimidine]
EC50 (human CB2 receptors): 0.8 nM | EC50 (human CB1 receptors): 306 nM

CC(C)(C)c1nc(N2CCC(F)(F)C2)c2nnn(Cc3nccc(Cl)c3Cl)c2n1 [Example 124, 5-tert-Butyl-3-(3,4-dichloro-pyridin-2-ylmethyl)-7-(3,3-difluoro-pyrrolidin-1-yl)-3H-[1,2,3]triazolo[4,5-d]pyrimidine]
EC50 (human CB2 receptors): 0.3 nM | EC50 (human CB1 receptors): 276 nM

CC(C)(C)c1nc(N2CCC(F)(F)C2)c2nnn(C3CS(=O)(=O)C3)c2n1 [Example 125, 5-tert-Butyl-7-(3,3-difluoro-pyrrolidin-1-yl)-3-(1,1-dioxo-1λ^6-thietan-3-yl)-3H-[1,2,3]triazolo[4,5-d]pyrimidine]
EC50 (human CB2 receptors): 1.9 nM | EC50 (human CB1 receptors): > 10000 nM

CC(C)(C)c1nc(N2CCC(F)(F)C2)c2nnn(C3CCS(=O)(=O)C3)c2n1 (stereo not drawn) [Example 126, 5-tert-Butyl-7-(3,3-difluoro-pyrrolidin-1-yl)-3-(1,1-dioxo-tetrahydro-1λ^6-thiophen-3-yl)-3H-[1,2,3]triazolo[4,5-d]pyrimidine]
EC50 (human CB2 receptors): 0.3 nM | EC50 (human CB1 receptors): 496 nM

CC(C)(C)c1nc(N2CCC(F)(F)C2)c2nnn(CC(=O)c3ccccn3)c2n1 [Example 127, 2-[5-tert-Butyl-7-(3,3-difluoro-pyrrolidin-1-yl)-[1,2,3]triazolo[4,5-d]pyrimidin-3-yl]-1-pyridin-2-yl-ethanone]
EC50 (human CB2 receptors): 0.4 nM | EC50 (human CB1 receptors): > 10000 nM

Cc1nnc(Cn2nnc3c(N4CCC(F)(F)C4)nc(C(C)(C)C)nc32)o1 [Example 128, 5-tert-Butyl-7-(3,3-difluoro-pyrrolidin-1-yl)-3-(5-methyl-[1,3,4]oxadiazol-2-ylmethyl)-3H-[1,2,3]triazolo[4,5-d]pyrimidine]
EC50 (human CB2 receptors): 0.4 nM | EC50 (human CB1 receptors): > 10000 nM

CC(C)(C)c1nc(N2CCC(F)(F)C2)c2nnn(Cc3ccncc3Cl)c2n1 [Example 129, 5-tert-Butyl-3-(3-chloro-pyridin-4-ylmethyl)-7-(3,3-difluoro-pyrrolidin-1-yl)-3H-[1,2,3]triazolo[4,5-d]pyrimidine]
EC50 (human CB2 receptors): 0.1 nM | EC50 (human CB1 receptors): 670 nM
